Results taken from patent publication US20240139221A1, “TREATMENT OF HPV-INDUCED NEOPLASIA” (priority 2022, published 2024).
Where two headings read alike, the source gives them in different places.

Legend:
[1] = Tablet stability study (purity by HPLC); format: physicochemical
Method: Tablets were prepared using the excipients and excipient ratios shown in the first column of the following tables. The tablets were then stored under the conditions indicated and periodically sampled and tested for purity by HPLC.

[2] = Hygroscopicity by DVS at 25° C.; format: physicochemical; details: DVS 25° C.; for D. (%) Cycle 1: Desorption cycle 1; for D. (%) Cycle 2: Desorption cycle 2; for S. (%) Cycle 1: Sorption cycle 1; for S. (%) Cycle 2: Sorption cycle 2
Method: Hygroscopicity was investigated by DVS at 25° C., using the following method: […]

[3] = Approximate solubility in solvents at 25° C. and 50° C., visual observation; format: physicochemical; details: thermodynamic from solid
Method: The maximum volume of each solvent added was 1 mL. Approximate solubility was determined by visual observation.
Maximum volume of each solvent added was 1 mL. Approximate solubility was determined by visual observation.

[4] = Behavior under compression, grinding simulation and granulation simulation (XRPD); format: physicochemical
Method: About 10 mg of Compound I monofumarate Pattern 1 (Example 7) was compressed for 5 minutes at 10 MPa with a hydraulic press. XRPD characterization was performed to investigate the polymorphic behavior under compression.
About 10 mg of Compound I monofumarate Pattern 1 (Example 7) was ground manually with a mortar and pestle for 5 min. Form transformation and degree of crystallinity was evaluated by XRPD.
Water or ethanol was added drop wise to about 10 mg of Compound I monofumarate Pattern 1 (Example 7) until solids were wetted sufficiently. The samples were ground manually with a mortar and pestle for 3 minutes. Samples are dried under ambient condition for 10 min. Form transformation and degree of crystallinity were evaluated by XRPD.

[5] = Solubility in buffers, water and simulated vaginal fluid at 37° C.; details: for solubility at 0.5 h / solubility at 2 h: 37 °C, thermodynamic from solid; for pH of solution at 2 hrs: 37° C.
[6] = Bulk stability (accelerated stability, one week; HPLC and XRPD)
Method: Bulk stability: Accelerated stability experiments were conducted at 25° C./92% RH and 40° C./75% RH in an open container, 60° C. in a tight container for one week.
Samples were characterized by XRPD and HPLC and inspected for color change.
Accelerated stability experiments were conducted at 25° C./92% RH in an open container, at 40° C./75% RH in an open container, and at 60° C. in a tight container for one week.

[7] = excipients PC (7.5%) + MCC (91.46%) + MgS (1%)
[8] = excipients PC (7.5%) + Mannitol (91.46%) + MgS (1%)
[9] = excipients PEO-15 (25%) + MCC (74%) + MgS (1%)
[10] = excipients PEO-15 (25%) + Mannitol (74%) + MgS (1%)
[11] = ground manually with mortar and pestle for 5 min
[12] = pH 4.2, fassgf or other biorelevant
[13] = 25° C., 92% RH, open container, one week
[14] = 40° C., 75% RH, open container, one week
[15] = 60° C., tight container, one week

In the case of `CCOC(=O)[C@H](C)NP(=O)(COCCn1cnc2c(OC)nc(N)nc21)OCc1ccccc1.O=C(O)/C=C/C(=O)O` (mixture of isomers) [Compound I monofumarate, (±)-(2S)-Ethyl-2-((((2-(2-amino-6-methoxy-9H-purin-9-yl)-ethoxy)-methyl)-(benzyloxy)-phosphoryl)-amino)-propionate monofumarate], the “purity by HPLC, 0 months” value [1, 7] is reported as 99.81, the “purity by HPLC, 1 month 25 C./60% RH” value [1, 7] is reported as 98.04 and the “purity by HPLC, 1 month 40 C./75% RH” value [1, 7] is reported as 84.92. The “purity by HPLC, 0 months” value [1, 8] was 99.61, the “purity by HPLC, 1 month 25 C./60% RH” value [1, 8] was 98.77 and the “purity by HPLC, 1 month 40 C./75% RH” value [1, 8] was 85.26. For the same molecule, the “purity by HPLC, 0 months” value [1, 9] was 99.03, the “purity by HPLC, 1 month 25 C./60% RH” value [1, 9] was 97.76 and the “purity by HPLC, 1 month 40 C./75% RH” value [1, 9] was 83.13. The “purity by HPLC, 0 months” value [1, 10] was 97.95, the “purity by HPLC, 1 month 25 C./60% RH” value [1, 10] was 97.04 and the “purity by HPLC, 1 month 40 C./75% RH” value [1, 10] was 87.09. For the same molecule, the “D. (%) Cycle 1” value ([2]; 0% RH) was 0.49%, the “D. (%) Cycle 1” value ([2]; 10% RH) was 0.62% and the “D. (%) Cycle 1” value ([2]; 20% RH) was 0.71%. The “D. (%) Cycle 1” value ([2]; 30% RH) was 0.81%, the “D. (%) Cycle 1” value ([2]; 40% RH) was 0.93% and the “D. (%) Cycle 2” value ([2]; 0% RH) was 0.09%. For the same molecule, the “D. (%) Cycle 2” value ([2]; 10% RH) was 0.15%, the “D. (%) Cycle 2” value ([2]; 20% RH) was 0.35% and the “D. (%) Cycle 2” value ([2]; 30% RH) was 0.47%. For the same molecule, the “D. (%) Cycle 2” value ([2]; 40% RH) was 0.56%, the “D. (%) Cycle 2” value ([2]; 50% RH) was 0.67% and the “D. (%) Cycle 2” value ([2]; 60% RH) was 0.85%. The “D. (%) Cycle 2” value ([2]; 70% RH) was 1.04%, the “D. (%) Cycle 2” value ([2]; 80% RH) was 1.30% and the “D. (%) Cycle 2” value ([2]; 90% RH) was 1.84%. The “D. (%) Cycle 2” value ([2]; 95% RH) was 2.89%, the “S. (%) Cycle 1” value ([2]; 0% RH) was 0.49% and the “S. (%) Cycle 1” value ([2]; 10% RH) was 0.56%. For the same molecule, the “S. (%) Cycle 1” value ([2]; 20% RH) was 0.66%, the “S. (%) Cycle 1” value ([2]; 30% RH) was 0.76% and the “S. (%) Cycle 1” value ([2]; 40% RH) was 0.86%. The “S. (%) Cycle 1” value ([2]; 50% RH) was 0.71%, the “S. (%) Cycle 1” value ([2]; 60% RH) was 0.85% and the “S. (%) Cycle 1” value ([2]; 70% RH) was 1.02%. For the same molecule, the “S. (%) Cycle 1” value ([2]; 80% RH) was 1.27%, the “S. (%) Cycle 1” value ([2]; 90% RH) was 1.78% and the “S. (%) Cycle 1” value ([2]; 95% RH) was 2.89%. The “S. (%) Cycle 2” value ([2]; 0% RH) was 0.09%, the “S. (%) Cycle 2” value ([2]; 10% RH) was 0.18% and the “S. (%) Cycle 2” value ([2]; 20% RH) was 0.27%. For the same molecule, the “S. (%) Cycle 2” value ([2]; 30% RH) was 0.37%, the “S. (%) Cycle 2” value ([2]; 40% RH) was 0.47% and the water uptake ([2]; up to 95% RH) was “about 2.9%”. For the same molecule, the solubility ([3]; 25 °C, organic solvent or mixture, Table 14, ACN, 25° C., read-out: Solubility (mg/mL) 25° C.) was 20 to 25 mg/mL, the solubility ([3]; 25 °C, organic solvent or mixture, Table 14, Acetone, 25° C., read-out: Solubility (mg/mL) 25° C.) was 50 to 100 mg/mL and the solubility ([3]; 25 °C, organic solvent or mixture, Table 14, DCM, 25° C., read-out: Solubility (mg/mL) 25° C.) was less than 2 mg/mL. The solubility ([3]; 25 °C, organic solvent or mixture, Table 14, EA, 25° C., read-out: Solubility (mg/mL) 25° C.) was less than 2 mg/mL, the solubility ([3]; 25 °C, organic solvent or mixture, Table 14, EtOH, 25° C., read-out: Solubility (mg/mL) 25° C.) was greater than 100 mg/mL and the solubility ([3]; 25 °C, organic solvent or mixture, Table 14, Heptanes, 25° C., read-out: Solubility (mg/mL) 25° C.) was less than 2 mg/mL. For the same molecule, the solubility ([3]; 25 °C, organic solvent or mixture, Table 14, IPA, 25° C., read-out: Solubility (mg/mL) 25° C.) was 50 to 100 mg/mL, the solubility ([3]; 25 °C, organic solvent or mixture, Table 14, IPAc, 25° C., read-out: Solubility (mg/mL) 25° C.) was less than 2 mg/mL and the solubility ([3]; 25 °C, organic solvent or mixture, Table 14, MEK, 25° C., read-out: Solubility (mg/mL) 25° C.) was 20 to 25 mg/mL. The solubility ([3]; 25 °C, organic solvent or mixture, Table 14, MTBE, 25° C., read-out: Solubility (mg/mL) 25° C.) was less than 2 mg/mL, the solubility ([3]; 25 °C, organic solvent or mixture, Table 14, MeOH, 25° C., read-out: Solubility (mg/mL) 25° C.) was greater than 100 mg/mL and the solubility ([3]; 25 °C, organic solvent or mixture, Table 14, THF, 25° C., read-out: Solubility (mg/mL) 25° C.) was greater than 100 mg/mL. It also gave a solubility ([3]; 25 °C, organic solvent or mixture, Table 14, Toluene, 25° C., read-out: Solubility (mg/mL) 25° C.) of less than 2 mg/mL, a solubility ([3]; 25 °C, water, Table 14, Water, 25° C., read-out: Solubility (mg/mL) 25° C.) of 14 to 17 mg/mL and a solubility ([3]; 50 °C, organic solvent or mixture, Table 14, ACN, 50° C., read-out: Solubility (mg/mL) 50° C.) of 20 to 33 mg/mL. The solubility ([3]; 50 °C, organic solvent or mixture, Table 14, Acetone, 50° C., read-out: Solubility (mg/mL) 50° C.) was 125 to 167 mg/mL, the solubility ([3]; 50 °C, organic solvent or mixture, Table 14, DCM, 50° C., read-out: Solubility (mg/mL) 50° C.) was less than 10 mg/mL and the solubility ([3]; 50 °C, organic solvent or mixture, Table 14, EA, 50° C., read-out: Solubility (mg/mL) 50° C.) was less than 10 mg/mL. It also gave a solubility ([3]; 50 °C, organic solvent or mixture, Table 14, EtOH, 50° C., read-out: Solubility (mg/mL) 50° C.) of 250 to 500 mg/mL, a solubility ([3]; 50 °C, organic solvent or mixture, Table 14, Heptanes, 50° C., read-out: Solubility (mg/mL) 50° C.) of less than 10 mg/mL and a solubility ([3]; 50 °C, organic solvent or mixture, Table 14, IPA, 50° C., read-out: Solubility (mg/mL) 50° C.) of 71 to 84 mg/mL. For the same molecule, the solubility ([3]; 50 °C, organic solvent or mixture, Table 14, IPAc, 50° C., read-out: Solubility (mg/mL) 50° C.) was less than 10 mg/mL, the solubility ([3]; 50 °C, organic solvent or mixture, Table 14, MEK, 50° C., read-out: Solubility (mg/mL) 50° C.) was 22 to 25 mg/mL and the solubility ([3]; 50 °C, organic solvent or mixture, Table 14, MTBE, 50° C., read-out: Solubility (mg/mL) 50° C.) was less than 10 mg/mL. The solubility ([3]; 50 °C, organic solvent or mixture, Table 14, MeOH, 50° C., read-out: Solubility (mg/mL) 50° C.) was greater than 500 mg/mL, the solubility ([3]; 50 °C, organic solvent or mixture, Table 14, THF, 50° C., read-out: Solubility (mg/mL) 50° C.) was 250 to 500 mg/mL and the solubility ([3]; 50 °C, organic solvent or mixture, Table 14, Toluene, 50° C., read-out: Solubility (mg/mL) 50° C.) was less than 10 mg/mL. For the same molecule, the solubility ([3]; 50 °C, water, Table 14, Water, 50° C., read-out: Solubility (mg/mL) 50° C.) was 22 to 25 mg/mL, the “degree of crystallinity on grinding (XRPD)” value [4, 11] was “crystallinity slightly decreased” and the “form transformation on grinding (XRPD)” value [4, 11] was “no form change was observed”. For the same molecule, the “form transformation on granulation simulation (XRPD)” value ([4]; wetted with water or ethanol, ground 3 minutes, dried 10 min) was “neither in ethanol, nor in water form change was observed”, the solubility at 0.5 h ([5]; pH 3, aqueous buffer) was greater than 2 mg/mL and the solubility at 2 h ([5]; pH 3, aqueous buffer) was greater than 2 mg/mL. It also gave a solubility at 0.5 h [5, 12] greater than 2 mg/mL, a solubility at 2 h [5, 12] greater than 2 mg/mL and a solubility at 0.5 h ([5]; pH 4.5, aqueous buffer) greater than 2 mg/mL. The solubility at 2 h ([5]; pH 4.5, aqueous buffer) was greater than 2 mg/mL, the solubility at 0.5 h ([5]; pH 6.8, aqueous buffer) was greater than 2 mg/mL and the solubility at 2 h ([5]; pH 6.8, aqueous buffer) was greater than 2 mg/mL. The solubility at 0.5 h ([5]; water) was greater than 2 mg/mL, the solubility at 2 h ([5]; water) was greater than 2 mg/mL and the “pH of solution at 2 hrs” value ([5]; Simulated vaginal fluid (pH adjusted with 0.2N NaOH)) was “(5.39)”. For the same molecule, the “pH of solution at 2 hrs” value ([5]; Water) was “(3.11)”, the “pH of solution at 2 hrs” value ([5]; pH 3.0 100 mM citrate buffer) was “(3.05)” and the “pH of solution at 2 hrs” value ([5]; pH 4.5 50 mM acetate buffer) was “(4.36)”. The “pH of solution at 2 hrs” value ([5]; pH 6.8 50 mM phosphate buffer) was “(6.49)”, the XRPD after storage ([6]; 25° C., 84% RH, open container, 2 days) was “No change” and the “HPLC (purity) after storage” value [6, 13] was 98.2%. For the same molecule, the XRPD after storage [6, 13] was “No change”, the “HPLC (purity) after storage” value [6, 14] was 95.6% and the XRPD after storage [6, 14] was “No change”. The “HPLC (purity) after storage” value [6, 15] was 95.5%, the XRPD after storage [6, 15] was “No change” and the “HPLC (purity), Initial” value ([6]; initial, before storage) was 98.6%.
